# Patent US20250230193A1, “CYCLIC COMPOUND HAVING SELECTIVE KRAS INHIBITORY EFFECT ON HRAS AND NRAS” (CHUGAI SEIYAKU KABUSHIKI KAISHA, priority 2022, published 2025)
# *1 amine or outer side, *2 acyl side, *3 side chain or, on linkers, in order; H or OH if unused. Where a SMILES comes first, the peptide text is derived from it. Bridges are numbered along the chain shown (N, C = ends). [ ]: non-standard residue; d: D form. The star is where a group is joined. hPhe(3,5-F2-4-CF3) = N[C@@H](CCc1cc(F)c(C(F)(F)F)c(F)c1)C(=O)O; hPhe(3-Cl-4-CF3) = N[C@@H](CCc1ccc(C(F)(F)F)c(Cl)c1)C(=O)O; NPrPhe(4-CF3) = CCCN[C@@H](Cc1ccc(C(F)(F)F)cc1)C(=O)O; X38 = C[C@@H]1CN([*:1])[C@@H]1C(=O)[*:2]; NMeGly(cPent) = CN[C@H](C(=O)O)C1CCCC1; X9 = C[C@@](N[*:1])(C(=O)[*:2])C1CC1; NMeD = CN[C@@H](CC(=O)O)C(=O)O; NMeL = CN[C@@H](CC(C)C)C(=O)O; Morpholide = C1CN(*)CCO1; Pyrrolidide = C1CCN(*)C1; Ac5c = NC1(C(=O)O)CCCC1; Sar = CNCC(=O)O
# Key:
# [1] = biological target: GDP-bound NRAS wild-type protein (Homo sapiens, UniProt P01111); assay: Binding to NRAS by surface plasmon resonance (SPR), Single Cycle Kinetics; details: SPR; for NRAS/KRAS (ratio of KD value with respect to NRAS to KD value with respect to KRAS) / NRAS/KRAS (ratio of KD value for NRAS to KD value for KRAS): GDP-bound NRAS wild-type vs GDP-bound KRAS wild-type
# Chain of GDP-bound NRAS wild-type protein (P01111 whole entry): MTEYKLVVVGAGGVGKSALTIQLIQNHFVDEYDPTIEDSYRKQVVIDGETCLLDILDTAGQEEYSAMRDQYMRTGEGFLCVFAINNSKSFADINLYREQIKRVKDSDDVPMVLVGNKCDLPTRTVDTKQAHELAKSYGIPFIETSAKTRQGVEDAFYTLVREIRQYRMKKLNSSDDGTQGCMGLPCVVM
# [2] = biological target: GDP-bound HRAS wild-type protein (Homo sapiens, UniProt P01112); assay: Binding to HRAS by surface plasmon resonance (SPR), Single Cycle Kinetics; details: SPR; for HRAS/KRAS (ratio of KD value with respect to HRAS to KD value with respect to KRAS) / HRAS/KRAS (ratio of KD value for HRAS to KD value for KRAS): GDP-bound HRAS wild-type vs GDP-bound KRAS wild-type
# Chain of GDP-bound HRAS wild-type protein (P01112 whole entry): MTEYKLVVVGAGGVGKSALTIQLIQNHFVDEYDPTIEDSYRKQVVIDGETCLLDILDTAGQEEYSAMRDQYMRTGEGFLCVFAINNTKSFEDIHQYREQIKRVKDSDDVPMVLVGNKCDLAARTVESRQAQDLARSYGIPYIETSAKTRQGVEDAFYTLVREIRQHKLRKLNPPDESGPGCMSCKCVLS
compound,measurement,setting,value
CCCN1C(=O)CN(C)C(=O)[C@@H]2[C@H](C)CN2C(=O)[C@H]([C@@H](C)CC)NC(=O)[C@H](CC(C)C)N(C)C(=O)C[C@@H](C(=O)N2CCOCC2)N(C)C(=O)[C@H](C2CCCC2)N(C)C(=O)C2(CCCC2)NC(=O)[C@@H]2CCCN2C(=O)[C@H](CCc2ccc(C(F)(F)F)c(Cl)c2)NC(=O)CN(C)C(=O)[C@@H]1Cc1ccc(C(F)(F)F)cc1 [PP0257] ([NMeL]I[X38][Sar][NPrPhe(4-CF3)][Sar][hPhe(3-Cl-4-CF3)]P[Ac5c][NMeGly(cPent)][NMeD]-Morpholide; lactam N-11),NRAS/KRAS (ratio of KD for GDP-bound NRAS wild-type to KD for KRAS),[1]; KD ratio NRAS/KRAS,B (a compound having 3 or more and less than 10 is denoted as B)
same,HRAS/KRAS (ratio of KD for GDP-bound HRAS wild-type to KD for KRAS),[2]; KD ratio HRAS/KRAS,B (a compound having 3 or more and less than 10 is denoted as B)
CCCO[C@@H]1CCN2C(=O)[C@H](CCc3cc(F)c(C(F)(F)F)c(F)c3)NC(=O)CN(C)C(=O)[C@H](Cc3ccc(C(F)(F)F)cc3)N3CCCCC[C@@H](C3=O)N(C)C(=O)CN(C)C(=O)[C@H]([C@@H](C)CC)NC(=O)[C@H](CC(C)C)N(C)C(=O)C[C@@H](C(=O)N3CCOCC3)N(C)C(=O)[C@H](C3CCCC3)N(C)C(=O)C3(CCC3)NC(=O)[C@H]12 [PP1083],NRAS/KRAS (ratio of KD value with respect to NRAS to KD value with respect to KRAS),[1],B (a compound having 3 or more and less than 10 is denoted as B)
same,HRAS/KRAS (ratio of KD value with respect to HRAS to KD value with respect to KRAS),[2],B (a compound having 3 or more and less than 10 is denoted as B)
CCO[C@@H]1C[C@H]2C(=O)NC3(CCC3)C(=O)N(C)[C@@H](C3CCCC3)C(=O)N(CC)[C@H](C(=O)N3CCOCC3)CC(=O)N(C)[C@@H](COC)C(=O)N[C@@H]([C@@H](C)CC)C(=O)N(C)CC(=O)N(C)[C@H]3CCCCCN(C3=O)[C@@H](Cc3ccc(C(F)(F)F)cc3)C(=O)N(C)CC(=O)N[C@@H](CCc3cc(F)c(C(F)(F)F)c(F)c3)C(=O)N2C1 [PP0946],NRAS/KRAS (ratio of KD value with respect to NRAS to KD value with respect to KRAS),[1],A (a compound having 10 or more and less than 20 is denoted as A)
same,HRAS/KRAS (ratio of KD value with respect to HRAS to KD value with respect to KRAS),[2],B (a compound having 3 or more and less than 10 is denoted as B)
"CCCN1C(=O)CN(C)C(=O)CN(C)C(=O)[C@H]([C@@H](C)CC)NC(=O)[C@H](CC(C)C)N(C)C(=O)C[C@@H](C(=O)N(C)C)N(C)C(=O)[C@H](C2CCCC2)N(C)C(=O)[C@](C)(C2CC2)NC(=O)[C@@H]2CCCN2C(=O)[C@H](CCc2cc(F)c(C(F)(F)F)c(F)c2)NC(=O)CN(C)C(=O)[C@@H]1Cc1ccc(C(F)(F)F)cc1 [PP0734] ([NMeL]I[Sar][Sar][NPrPhe(4-CF3)][Sar][hPhe(3,5-F2-4-CF3)]P[X9][NMeGly(cPent)][NMeD]-NMe2; lactam N-11)",NRAS/KRAS (ratio of KD value with respect to GDP-bound NRAS wild-type protein to KD value with respect to KRAS),[1]; KD ratio NRAS/KRAS,B (a compound having 3 or more and less than 10 is denoted as B)
same,HRAS/KRAS (ratio of KD value with respect to GDP-bound HRAS wild-type protein to KD value with respect to KRAS),[2]; KD ratio HRAS/KRAS,C (A compound having a KD ratio of 0.1 or more and less than 3 is denoted as C)
CCCN1C(=O)CN(C)C(=O)CN(C)C(=O)[C@H]([C@@H](C)CC)NC(=O)[C@H](CC(C)C)N(C)C(=O)C[C@@H](C(=O)N2CCCC2)N(C)C(=O)[C@H](C2CCCC2)N(C)C(=O)C2(CCCC2)NC(=O)[C@@H]2CCCN2C(=O)[C@H](CCc2ccc(C(F)(F)F)c(Cl)c2)NC(=O)CN(C)C(=O)[C@@H]1Cc1ccc(C(F)(F)F)cc1 [PP0170] ([NMeL]I[Sar][Sar][NPrPhe(4-CF3)][Sar][hPhe(3-Cl-4-CF3)]P[Ac5c][NMeGly(cPent)][NMeD]-Pyrrolidide; lactam N-11),NRAS/KRAS (ratio of KD for GDP-bound NRAS wild-type to KD for KRAS),[1]; KD ratio NRAS/KRAS,B (a compound having 3 or more and less than 10 is denoted as B)
same,HRAS/KRAS (ratio of KD for GDP-bound HRAS wild-type to KD for KRAS),[2]; KD ratio HRAS/KRAS,B (a compound having 3 or more and less than 10 is denoted as B)
CCC[C@H]1C(=O)N[C@@H]([C@@H](C)CC)C(=O)N(C)CC(=O)N(C)[C@H]2C/C=C\CCN(C2=O)[C@@H](Cc2ccc(C(F)(F)F)cc2)C(=O)N(C)CC(=O)N[C@@H](CCc2cc(F)c(C(F)(F)F)c(F)c2)C(=O)N2C[C@H](F)C[C@H]2C(=O)NC2(CC(C)(C)C2)C(=O)N(C)[C@@H](C2CCCC2)C(=O)N(C)[C@H](C(=O)N(C)C)CC(=O)N1C [PP1689],NRAS/KRAS (ratio of KD value for NRAS to KD value for KRAS),[1],A (a compound having 10 or more and less than 20 is denoted as A)
same,HRAS/KRAS (ratio of KD value for HRAS to KD value for KRAS),[2],B (a compound having 3 or more and less than 10 is denoted as B)
CC[C@H](C)[C@@H]1NC(=O)[C@H](CCOC)N(C)C(=O)C[C@@H](C(=O)N(C)CC)N(C)C(=O)[C@H](C2CCCC2)N(C)C(=O)C2(CC(C)(C)C2)NC(=O)[C@@H]2C[C@H](C)CN2C(=O)[C@H](CCc2cc(F)c(C(F)(F)F)c(F)c2)NC(=O)CN(C)C(=O)[C@H](Cc2ccc(C(F)(F)F)cc2)N2CC/C=C\C[C@@H](C2=O)N(C)C(=O)CN(C)C1=O [PP1972],NRAS/KRAS (ratio of KD value for NRAS to KD value for KRAS),[1],A (a compound having 10 or more and less than 20 is denoted as A)
same,HRAS/KRAS (ratio of KD value for HRAS to KD value for KRAS),[2],A (a compound having 10 or more and less than 20 is denoted as A)
